Source: ChEMBL document CHEMBL3870313, “Synthesis and structure-activity relationship study of tacrine-based pyrano[2,3-c]pyrazoles targeting AChE/BuChE and 15-LOX” (Eur J Med Chem, 2016)

Columns and labels:
Acetylcholinesterase [1] = molecular target: T1, Acetylcholinesterase (Electrophorus electricus, UniProt O42275)
Description: Inhibition of electric eel AChE using acetylthiocholine iodide as substrate incubated for 5 mins followed by substrate addition measured for 1 min by Ellman's method

Cholinesterase = Cholinesterase (Homo sapiens, UniProt P06276)
Description: Inhibition of human recombinant BChE using butyrylthiocholine iodide as substrate incubated for 5 mins followed by substrate addition measured for 1 min by Ellman's method

in vitro [2] = conditions: human, HepG2 cells
Description: Cytotoxicity against human HepG2 cells assessed as cell viability at 50 uM after 24 hrs by MTT assay

in vitro [3] = conditions: human, HepG2 cells; remark: listed apart in the source
Description: Cytotoxicity against human HepG2 cells assessed as cell viability at 25 uM after 24 hrs by MTT assay

in vitro [4] = conditions: human, HepG2 cells; remark: listed apart in the source
Description: Cytotoxicity against human HepG2 cells assessed as cell viability at 300 uM after 24 hrs by MTT assay

in vitro [5] = conditions: human, HepG2 cells; remark: listed apart in the source
Description: Cytotoxicity against human HepG2 cells assessed as cell viability at 100 uM after 24 hrs by MTT assay

in vitro [6] = conditions: human, HepG2 cells; remark: listed apart in the source
Description: Cytotoxicity against human HepG2 cells assessed as cell viability at 10 uM after 24 hrs by MTT assay

in vitro [7] = conditions: human, HepG2 cells; remark: listed apart in the source
Description: Cytotoxicity against human HepG2 cells assessed as cell viability at 5 uM after 24 hrs by MTT assay

in vitro [8] = conditions: human, HepG2 cells; remark: listed apart in the source
Description: Cytotoxicity against human HepG2 cells assessed as cell viability at 1 uM after 24 hrs by MTT assay

[9] = molecular target: Acetylcholinesterase (Electrophorus electricus) (UniProt O42275); assay: Potency index, ratio of tacrine IC50 to compound IC50 for electric eel AChE
Sequence of Acetylcholinesterase (Electrophorus electricus) (O42275 24-633 limits assumed): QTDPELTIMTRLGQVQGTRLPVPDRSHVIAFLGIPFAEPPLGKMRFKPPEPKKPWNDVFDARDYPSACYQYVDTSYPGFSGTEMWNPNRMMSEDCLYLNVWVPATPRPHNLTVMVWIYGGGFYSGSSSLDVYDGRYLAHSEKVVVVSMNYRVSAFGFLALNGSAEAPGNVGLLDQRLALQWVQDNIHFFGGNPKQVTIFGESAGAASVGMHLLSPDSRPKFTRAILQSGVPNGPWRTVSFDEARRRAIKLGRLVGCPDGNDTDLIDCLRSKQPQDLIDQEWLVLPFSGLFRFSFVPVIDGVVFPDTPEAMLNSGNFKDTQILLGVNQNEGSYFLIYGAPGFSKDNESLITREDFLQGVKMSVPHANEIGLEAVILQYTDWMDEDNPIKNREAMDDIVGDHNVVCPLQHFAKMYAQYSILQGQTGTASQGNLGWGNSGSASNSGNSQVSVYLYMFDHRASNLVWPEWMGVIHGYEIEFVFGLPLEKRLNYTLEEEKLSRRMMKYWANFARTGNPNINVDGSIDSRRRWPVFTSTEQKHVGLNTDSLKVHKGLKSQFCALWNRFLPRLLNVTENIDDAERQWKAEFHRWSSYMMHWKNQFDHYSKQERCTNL

Acetylcholinesterase [10] = molecular target: T1, Acetylcholinesterase; assay: Mixed type inhibition of electric eel AChE using acetylthiocholine iodide as substrate incubated for 5 mins followed by substrate addition measured for 1 min by Lineweaver-Burk plot analysis

T1 sequence (O42275 whole entry): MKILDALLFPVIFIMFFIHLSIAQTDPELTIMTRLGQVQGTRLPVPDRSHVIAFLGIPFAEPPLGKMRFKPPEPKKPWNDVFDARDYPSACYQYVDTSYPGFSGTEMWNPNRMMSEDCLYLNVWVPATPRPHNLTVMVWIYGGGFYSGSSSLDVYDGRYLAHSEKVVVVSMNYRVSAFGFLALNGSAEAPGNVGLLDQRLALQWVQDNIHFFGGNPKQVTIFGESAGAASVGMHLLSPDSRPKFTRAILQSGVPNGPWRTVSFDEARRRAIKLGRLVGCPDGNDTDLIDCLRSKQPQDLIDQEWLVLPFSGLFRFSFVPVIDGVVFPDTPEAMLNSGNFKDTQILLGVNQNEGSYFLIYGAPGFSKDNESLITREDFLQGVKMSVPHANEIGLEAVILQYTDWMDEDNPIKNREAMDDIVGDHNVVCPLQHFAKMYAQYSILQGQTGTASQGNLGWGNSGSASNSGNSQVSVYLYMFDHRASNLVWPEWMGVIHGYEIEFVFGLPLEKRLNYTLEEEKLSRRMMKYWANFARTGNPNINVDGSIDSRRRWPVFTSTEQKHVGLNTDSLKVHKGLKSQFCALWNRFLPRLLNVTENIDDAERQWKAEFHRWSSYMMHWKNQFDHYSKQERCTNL
Sequence of Cholinesterase (P06276 whole entry): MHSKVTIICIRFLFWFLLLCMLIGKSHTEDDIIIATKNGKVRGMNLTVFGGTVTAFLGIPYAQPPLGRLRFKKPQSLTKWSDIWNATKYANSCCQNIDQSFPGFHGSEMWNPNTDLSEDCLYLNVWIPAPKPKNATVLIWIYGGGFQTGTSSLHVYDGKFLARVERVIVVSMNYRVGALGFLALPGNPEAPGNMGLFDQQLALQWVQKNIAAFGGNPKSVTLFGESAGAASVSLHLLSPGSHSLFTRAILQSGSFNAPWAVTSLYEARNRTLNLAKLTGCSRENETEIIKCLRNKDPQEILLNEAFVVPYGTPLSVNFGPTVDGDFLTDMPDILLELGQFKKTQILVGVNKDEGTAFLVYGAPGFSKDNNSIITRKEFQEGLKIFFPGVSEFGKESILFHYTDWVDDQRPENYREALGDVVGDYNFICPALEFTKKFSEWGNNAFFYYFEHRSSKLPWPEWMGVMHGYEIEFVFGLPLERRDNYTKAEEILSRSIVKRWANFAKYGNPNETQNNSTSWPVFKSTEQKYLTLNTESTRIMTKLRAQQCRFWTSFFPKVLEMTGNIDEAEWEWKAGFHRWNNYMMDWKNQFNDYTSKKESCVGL

Compound: Nc1c2c(cc3c1C(c1ccc(Cl)cc1)c1c(-c4ccccc4)n[nH]c1O3)CCCC2 (stereo unspecified)
- IC50 (Acetylcholinesterase [1]): 260 nM
- IC50 (Cholinesterase): 21 nM

Compound: Nc1c2c(nc3c1C(c1ccccc1)c1c(-c4ccco4)nn(-c4ccccc4)c1O3)CCCC2 (stereo unspecified)
- viability at 24 h, 50 µM (in vitro [2]): 81.4%
- viability at 24 h, 25 µM (in vitro [3]): 85%
- viability at 24 h, 300 µM (in vitro [4]): 67.4%
- viability at 24 h, 100 µM (in vitro [5]): 75.7%
- IC50 (Acetylcholinesterase [1]): 72 nM
- viability at 24 h, 10 µM (in vitro [6]): 90.3%
- viability at 24 h, 5 µM (in vitro [7]): 95.8%
- viability at 24 h, 1 µM (in vitro [8]): 99.6%
- IC50 (Cholinesterase): 5 nM

Compound: Nc1c2c(nc3c1C(c1ccccc1)c1c(-c4ccccc4)nn(-c4ccccc4)c1O3)CCCC2 (stereo unspecified)
- IC50 (Acetylcholinesterase [1]): > 200000 nM
- IC50 (Cholinesterase): > 200000 nM

Compound: CCCc1n[nH]c2c1C(c1cccc(Br)c1)c1c(nc3c(c1N)CCCC3)O2 (stereo unspecified)
- IC50 (Acetylcholinesterase [1]): 472 nM
- IC50 (Cholinesterase): 15 nM

Compound: CCCc1n[nH]c2c1C(c1ccc(C)cc1)c1c(nc3c(c1N)CCCC3)O2 (stereo unspecified)
- IC50 (Acetylcholinesterase [1]): 120 nM
- IC50 (Cholinesterase): 13 nM

Compound: Nc1c2c(nc3c1C(c1ccc(Cl)cc1)c1c(-c4ccccc4)n[nH]c1O3)CCSC2 (stereo unspecified)
- IC50 (Acetylcholinesterase [1]): 450 nM
- IC50 (Cholinesterase): 30 nM

Compound: Nc1c2c(nc3c1C(c1ccccc1)c1c(-c4ccco4)n[nH]c1O3)CCCC2 (stereo unspecified)
- IC50 (Acetylcholinesterase [1]): 100 nM
- IC50 (Cholinesterase): 15 nM

Compound: CCCc1n[nH]c2c1C(c1ccccc1OC)c1c(nc3c(c1N)CCCC3)O2 (stereo unspecified)
- IC50 (Acetylcholinesterase [1]): 471 nM
- IC50 (Cholinesterase): 18 nM

Compound: CCCc1n[nH]c2c1C(c1cc(OC)c(OC)c(OC)c1)c1c(nc3c(c1N)CCCC3)O2 (stereo unspecified)
- IC50 (Acetylcholinesterase [1]): 900 nM
- IC50 (Cholinesterase): 42 nM

Compound: COc1cc(C2c3c(-c4ccccc4)n[nH]c3Oc3nc4c(c(N)c32)CCCC4)cc(OC)c1OC (stereo unspecified)
- IC50 (Acetylcholinesterase [1]): 1030 nM
- IC50 (Cholinesterase): 65 nM

Compound: CCCc1n[nH]c2c1C(c1ccc(SC)cc1)c1c(nc3c(c1N)CCCC3)O2 (stereo unspecified)
- IC50 (Acetylcholinesterase [1]): 201 nM
- IC50 (Cholinesterase): 8 nM

Compound: Cc1ccc(C2c3c(-c4ccccc4)n[nH]c3Oc3cc4c(c(N)c32)CCCC4)cc1 (stereo unspecified)
- IC50 (Acetylcholinesterase [1]): 98 nM
- IC50 (Cholinesterase): 11 nM

Compound: Nc1c2c(nc3c1C(c1ccc(Cl)cc1)c1c(-c4ccccc4)n[nH]c1O3)CCCCC2 (stereo unspecified)
- IC50 (Acetylcholinesterase [1]): 1920 nM
- IC50 (Cholinesterase): 77 nM

Compound: CCCc1n[nH]c2c1C(c1ccc(C)cc1)c1c(nc3c(c1N)CSCC3)O2 (stereo unspecified)
- IC50 (Acetylcholinesterase [1]): 1030 nM
- IC50 (Cholinesterase): 73 nM

Compound: Nc1c2c(cc3c1C(c1ccccc1)c1c(-c4ccccc4)n[nH]c1O3)CCCC2 (stereo unspecified)
- IC50 (Acetylcholinesterase [1]): 140 nM
- IC50 (Cholinesterase): 8 nM

Compound: CC(C)C1c2c(-c3ccccc3)n[nH]c2Oc2nc3c(c(N)c21)CCCC3 (stereo unspecified)
- IC50 (Acetylcholinesterase [1]): 15000 nM
- IC50 (Cholinesterase): 570 nM

Compound: CCCc1n[nH]c2c1C(c1ccc([N+](=O)[O-])cc1)c1c(nc3c(c1N)CCCC3)O2 (stereo unspecified)
- IC50 (Acetylcholinesterase [1]): 744 nM
- IC50 (Cholinesterase): 29 nM

Compound: CCCc1n[nH]c2c1C(c1ccc(C#N)cc1)c1c(nc3c(c1N)CCCC3)O2 (stereo unspecified)
- IC50 (Acetylcholinesterase [1]): 954 nM
- IC50 (Cholinesterase): 37 nM

Compound: Nc1c2c(cc3c1C(c1ccc(F)cc1)c1c(-c4ccccc4)n[nH]c1O3)CCCC2 (stereo unspecified)
- viability at 24 h, 50 µM (in vitro [2]): 98.4%
- viability at 24 h, 25 µM (in vitro [3]): 99.7%
- viability at 24 h, 300 µM (in vitro [4]): 73.4%
- viability at 24 h, 100 µM (in vitro [5]): 89.9%
- IC50 (Acetylcholinesterase [1]): 34 nM
- Ratio IC50 [9]: 6
- viability at 24 h, 10 µM (in vitro [6]): 100%
- viability at 24 h, 5 µM (in vitro [7]): 100%
- viability at 24 h, 1 µM (in vitro [8]): 101%
- Ki (Acetylcholinesterase [10]): 490 nM
- IC50 (Cholinesterase): 7 nM

Compound: Nc1c2c(nc3c1C(c1ccccc1)c1c(-c4ccccc4)n[nH]c1O3)CCCCC2 (stereo unspecified)
- IC50 (Acetylcholinesterase [1]): 54 nM
- IC50 (Cholinesterase): 9 nM

Compound: COc1ccc(C2c3c(-c4ccccc4)n[nH]c3Oc3cc4c(c(N)c32)CCCC4)cc1 (stereo unspecified)
- viability at 24 h, 50 µM (in vitro [2]): 98.2%
- viability at 24 h, 25 µM (in vitro [3]): 99.7%
- viability at 24 h, 300 µM (in vitro [4]): 71.3%
- viability at 24 h, 100 µM (in vitro [5]): 85.6%
- IC50 (Acetylcholinesterase [1]): 81 nM
- viability at 24 h, 10 µM (in vitro [6]): 99.7%
- viability at 24 h, 5 µM (in vitro [7]): 99.4%
- viability at 24 h, 1 µM (in vitro [8]): 99.1%
- IC50 (Cholinesterase): 7 nM

Compound: CCCc1n[nH]c2c1C(c1cccc([N+](=O)[O-])c1)c1c(nc3c(c1N)CCCC3)O2 (stereo unspecified)
- IC50 (Acetylcholinesterase [1]): 423 nM
- IC50 (Cholinesterase): 12 nM

Compound: CCCc1n[nH]c2c1C(c1ccc(OC)c(OC)c1)c1c(nc3c(c1N)CCCC3)O2 (stereo unspecified)
- IC50 (Acetylcholinesterase [1]): 1470 nM
- IC50 (Cholinesterase): 365 nM

Compound: CCCc1n[nH]c2c1C(c1ccccc1)c1c(nc3c(c1N)CCCCC3)O2 (stereo unspecified)
- IC50 (Acetylcholinesterase [1]): 650 nM
- IC50 (Cholinesterase): 43 nM

Compound: CCCc1n[nH]c2c1C(c1ccc(N(C)C)cc1)c1c(nc3c(c1N)CCCC3)O2 (stereo unspecified)
- IC50 (Acetylcholinesterase [1]): 347 nM
- IC50 (Cholinesterase): 24 nM

Compound: CCCc1n[nH]c2c1C(c1ccc(OC)cc1)c1c(nc3c(c1N)CCCC3)O2 (stereo unspecified)
- IC50 (Acetylcholinesterase [1]): 52 nM
- IC50 (Cholinesterase): 6 nM

Compound: CCCc1n[nH]c2c1C(c1ccc(Cl)cc1)c1c(nc3c(c1N)CSCC3)O2 (stereo unspecified)
- IC50 (Acetylcholinesterase [1]): 300 nM
- IC50 (Cholinesterase): 15 nM

Compound: CCCc1n[nH]c2c1C(c1ccc(Cl)cc1)c1c(nc3c(c1N)CCCC3)O2 (stereo unspecified)
- IC50 (Acetylcholinesterase [1]): 200 nM
- IC50 (Cholinesterase): 10 nM

Compound: CCCc1n[nH]c2c1C(c1ccc(Cl)cc1)c1c(nc3c(c1N)CCCCC3)O2 (stereo unspecified)
- IC50 (Acetylcholinesterase [1]): 1060 nM
- IC50 (Cholinesterase): 75 nM
